In ChEMBL document CHEMBL4138088, “Novel 1-(7-ethoxy-1-benzofuran-2-yl) substituted chalcone derivatives: Synthesis, characterization and anticancer activity” (Eur J Med Chem, 2017):
Calls of active or inactive are those of the source. No cut-off for these calls is given here.

Columns and labels:
[1] = tested on: MCF7; assay: Growth inhibition of human MCF7 cells at 20 uM after 72 hrs by SRB assay; format: functional, cell-based
[2] = tested on: MCF7; assay: Growth inhibition of human MCF7 cells at 20 uM after 72 hrs by ATP bioluminescence assay; format: functional, cell-based
[3] = tested on: A549; assay: Growth inhibition of human A549 cells at 20 uM after 72 hrs by SRB assay; format: functional, cell-based
[4] = tested on: A549; assay: Growth inhibition of human A549 cells after 72 hrs by ATP bioluminescence assay; format: functional, cell-based; conditions: A549, 72 h
[5] = tested on: MCF7; assay: Growth inhibition of human MCF7 cells after 72 hrs by ATP bioluminescence assay; format: functional, cell-based; conditions: MCF7, 72 h
[6] = tested on: PC-3; assay: Growth inhibition of human PC3 cells after 72 hrs by ATP bioluminescence assay; format: functional, cell-based; conditions: PC-3, 72 h
[7] = tested on: A549; assay: Induction of apoptosis in human A549 cells assessed as early apoptotic cells at 20 uM after 48 hrs by caspase 3/7 staining-based flow cytometry (reference value: 1.70%); format: functional
[8] = tested on: A549; assay: Induction of apoptosis in human A549 cells assessed as late apoptotic cells at 20 uM after 48 hrs by caspase 3/7 staining-based flow cytometry (reference value: 2.56%); format: functional
[9] = tested on: A549; assay: Induction of apoptosis in human A549 cells assessed as necrotic cells at 20 uM after 48 hrs by caspase 3/7 staining-based flow cytometry (reference value: 1.50%); format: functional
[10] = tested on: A549; assay: Induction of apoptosis in human A549 cells assessed as viable cells at 20 uM after 48 hrs by caspase 3/7 staining-based flow cytometry (reference value: 94.25%); format: functional; conditions: A549, 48 h, read-out: Activity
[11] = tested on: MCF7; assay: Induction of apoptosis in human MCF7 cells assessed as early apoptotic cells at 20 uM after 48 hrs by caspase 3/7 staining-based flow cytometry (reference value: 2.65%); format: functional
[12] = tested on: MCF7; assay: Induction of apoptosis in human MCF7 cells assessed as late apoptotic cells at 20 uM after 48 hrs by caspase 3/7 staining-based flow cytometry (reference value: 10.80%); format: functional
[13] = tested on: MCF7; assay: Induction of apoptosis in human MCF7 cells assessed as necrotic cells at 20 uM after 48 hrs by caspase 3/7 staining-based flow cytometry (reference value: 1.25%); format: functional
[14] = tested on: MCF7; assay: Induction of apoptosis in human MCF7 cells assessed as viable cells at 20 uM after 48 hrs by caspase 3/7 staining-based flow cytometry (reference value: 85.30%); format: functional; conditions: MCF7, 48 h, read-out: Activity
[15] = tested on: PC-3; assay: Induction of apoptosis in human PC3 cells assessed as early apoptotic cells at 20 uM after 48 hrs by caspase 3/7 staining-based flow cytometry (reference value: 0.3%); format: functional
[16] = tested on: PC-3; assay: Induction of apoptosis in human PC3 cells assessed as late apoptotic cells at 20 uM after 48 hrs by caspase 3/7 staining-based flow cytometry (reference value: 1.90%); format: functional
[17] = tested on: PC-3; assay: Induction of apoptosis in human PC3 cells assessed as necrotic cells at 20 uM after 48 hrs by caspase 3/7 staining-based flow cytometry (reference value: 3.05%); format: functional
[18] = tested on: PC-3; assay: Induction of apoptosis in human PC3 cells assessed as viable cells at 20 uM after 48 hrs by caspase 3/7 staining-based flow cytometry (reference value: 94.75%); format: functional; conditions: PC-3, 48 h, read-out: Activity
[19] = tested on: A549; assay: Induction of apoptosis in human A549 cells assessed as early apoptotic cells at 20 uM after 48 hrs by annexin V-propidium iodide staining-based flow cytometry (reference value: 3.75%); format: functional
[20] = tested on: A549; assay: Induction of apoptosis in human A549 cells assessed as late apoptotic cells at 20 uM after 48 hrs by annexin V-propidium iodide staining-based flow cytometry (reference value: 3.05%); format: functional
[21] = tested on: A549; assay: Induction of apoptosis in human A549 cells assessed as necrotic cells at 20 uM after 48 hrs by annexin V-propidium iodide staining-based flow cytometry (reference value: 1.4%); format: functional
[22] = tested on: A549; assay: Induction of apoptosis in human A549 cells assessed as viable cells at 20 uM after 48 hrs by annexin V-propidium iodide staining-based flow cytometry (reference value: 91.80%); format: functional; conditions: A549, 48 h, read-out: Activity
[23] = tested on: MCF7; assay: Induction of apoptosis in human MCF7 cells assessed as early apoptotic cells at 20 uM after 48 hrs by annexin V-propidium iodide staining-based flow cytometry (reference value: 2.15%); format: functional
[24] = tested on: MCF7; assay: Induction of apoptosis in human MCF7 cells assessed as late apoptotic cells at 20 uM after 48 hrs by annexin V-propidium iodide staining-based flow cytometry (reference value: 7.25%); format: functional
[25] = tested on: MCF7; assay: Induction of apoptosis in human MCF7 cells assessed as necrotic cells at 20 uM after 48 hrs by annexin V-propidium iodide staining-based flow cytometry (reference value: 0.35%); format: functional
[26] = tested on: MCF7; assay: Induction of apoptosis in human MCF7 cells assessed as viable cells at 20 uM after 48 hrs by annexin V-propidium iodide staining-based flow cytometry (reference value: 90.25%); format: functional; conditions: MCF7, 48 h, read-out: Activity
[27] = tested on: PC-3; assay: Induction of apoptosis in human PC3 cells assessed as early apoptotic cells at 20 uM after 48 hrs by annexin V-propidium iodide staining-based flow cytometry (reference value: 1.55%); format: functional
[28] = tested on: PC-3; assay: Induction of apoptosis in human PC3 cells assessed as late apoptotic cells at 20 uM after 48 hrs by annexin V-propidium iodide staining-based flow cytometry (reference value: 1.45%); format: functional
[29] = tested on: PC-3; assay: Induction of apoptosis in human PC3 cells assessed as necrotic cells at 20 uM after 48 hrs by annexin V-propidium iodide staining-based flow cytometry (reference value: 2.45%); format: functional
[30] = tested on: PC-3; assay: Induction of apoptosis in human PC3 cells assessed as viable cells at 20 uM after 48 hrs by annexin V-propidium iodide staining-based flow cytometry (reference value: 94.55%); format: functional; conditions: PC-3, 48 h, read-out: Activity
[31] = tested on: A549; assay: Induction of mitochondrial membrane depolarization in human A549 cells assessed as live cells at 20 uM after 48 hrs by 7-AAD/Muse mito-potential dye-based assay (reference value: 85.84%); format: functional
[32] = tested on: A549; assay: Induction of mitochondrial membrane depolarization in human A549 cells assessed as dead cells at 20 uM after 48 hrs by 7-AAD/Muse mito-potential dye-based assay (reference value: 2.44%); format: functional
[33] = tested on: A549; assay: Induction of mitochondrial membrane depolarization in human A549 cells assessed as depolarized dead cells at 20 uM after 48 hrs by 7-AAD/Muse mito-potential dye-based assay (reference value: 7.88%); format: functional
[34] = tested on: A549; assay: Induction of mitochondrial membrane depolarization in human A549 cells assessed as depolarized live cells at 20 uM after 48 hrs by 7-AAD/Muse mito-potential dye-based assay (reference value: 3.84%); format: functional
[35] = tested on: MCF7; assay: Induction of mitochondrial membrane depolarization in human MCF7 cells assessed as live cells at 20 uM after 48 hrs by 7-AAD/Muse mito-potential dye-based assay (reference value: 78.59%); format: functional
[36] = tested on: MCF7; assay: Induction of mitochondrial membrane depolarization in human MCF7 cells assessed as dead cells at 20 uM after 48 hrs by 7-AAD/Muse mito-potential dye-based assay (reference value: 2.30%); format: functional
[37] = tested on: MCF7; assay: Induction of mitochondrial membrane depolarization in human MCF7 cells assessed as depolarized dead cells at 20 uM after 48 hrs by 7-AAD/Muse mito-potential dye-based assay (reference value: 12.43%); format: functional
[38] = tested on: MCF7; assay: Induction of mitochondrial membrane depolarization in human MCF7 cells assessed as depolarized live cells at 20 uM after 48 hrs by 7-AAD/Muse mito-potential dye-based assay (reference value: 6.67%); format: functional
[39] = tested on: PC-3; assay: Induction of mitochondrial membrane depolarization in human PC3 cells assessed as live cells at 20 uM after 48 hrs by 7-AAD/Muse mito-potential dye-based assay (reference value: 83.15%); format: functional
[40] = tested on: PC-3; assay: Induction of mitochondrial membrane depolarization in human PC3 cells assessed as dead cells at 20 uM after 48 hrs by 7-AAD/Muse mito-potential dye-based assay (reference value: 2.20%); format: functional
[41] = tested on: PC-3; assay: Induction of mitochondrial membrane depolarization in human PC3 cells assessed as depolarized dead cells at 20 uM after 48 hrs by 7-AAD/Muse mito-potential dye-based assay (reference value: 2.05%); format: functional
[42] = tested on: PC-3; assay: Induction of mitochondrial membrane depolarization in human PC3 cells assessed as depolarized live cells at 20 uM after 48 hrs by 7-AAD/Muse mito-potential dye-based assay (reference value: 12.60%); format: functional
[43] = tested on: A549; assay: Induction of ROS generation in human A549 cells assessed as accumulation at M1 phase at 20 uM after 48 hrs flow cytometry (reference value: 97.60%); format: functional
[44] = tested on: A549; assay: Induction of ROS generation in human A549 cells assessed as accumulation at M2 phase at 20 uM after 48 hrs flow cytometry (reference value: 1.07%); format: functional
[45] = tested on: MCF7; assay: Induction of ROS generation in human MCF7 cells assessed as accumulation at M1 phase at 20 uM after 48 hrs flow cytometry (reference value: 97.67%); format: functional
[46] = tested on: MCF7; assay: Induction of ROS generation in human MCF7 cells assessed as accumulation at M2 phase at 20 uM after 48 hrs flow cytometry (reference value: 2.33%); format: functional
[47] = tested on: PC-3; assay: Induction of ROS generation in human PC3 cells assessed as accumulation at M1 phase at 20 uM after 48 hrs flow cytometry (reference value: 99.67%); format: functional
[48] = tested on: PC-3; assay: Induction of ROS generation in human PC3 cells assessed as accumulation at M2 phase at 20 uM after 48 hrs flow cytometry (reference value: 0.33%); format: functional
[49] = tested on: MCF7; assay: Induction of morphological changes in human MCF7 cells assessed as reduction in cell density at 20 uM after 72 hrs by phase contrast microscopic method; format: functional, cell-based
[50] = tested on: PC-3; assay: Induction of morphological changes in human PC3 cells assessed as reduction in cell density at 20 uM after 72 hrs by phase contrast microscopic method; format: functional, cell-based
[51] = tested on: A549; assay: Induction of morphological changes in human A549 cells assessed as reduction in cell density at 20 uM after 72 hrs by phase contrast microscopic method; format: functional, cell-based
[52] = tested on: A549; assay: Growth inhibition of human A549 cells at 20 uM after 72 hrs by ATP bioluminescence assay; format: functional, cell-based
[53] = tested on: PC-3; assay: Growth inhibition of human PC3 cells at 20 uM after 72 hrs by ATP bioluminescence assay; format: functional, cell-based

With CCOc1cccc2cc(C(=O)/C=C/c3ccc(C)cc3)oc12 the “growth inhibition (GI)” value [1] was “Active” and the “growth inhibition (GI)” value [2] was “Active”.
With CCOc1cccc2cc(C(=O)/C=C/c3ccc(N(C)C)cc3)oc12 the “growth inhibition (GI)” value [3] was “Active”, the “growth inhibition (GI)” value [1] was “Active” and the IC50 [4] was 9 µM. The IC50 [5] was 2 µM, the IC50 [6] was 10 µM and the Activity [7] was 7.75%. The Activity [8] was 58.7%, the Activity [9] was 10.5% and the viability at 20 µM [10] was 23.1%. For the same compound, the Activity [11] was 45%, the Activity [12] was 41% and the Activity [13] was 0.26%. The viability at 20 µM [14] was 13.8%, the Activity [15] was 0.65% and the Activity [16] was 11.1%. The Activity [17] was 37.25%, the viability at 20 µM [18] was 51% and the Activity [19] was 1.8%. For the same compound, the Activity [20] was 95.2%, the Activity [21] was 0.2% and the viability at 20 µM [22] was 2.8%. The Activity [23] was 4.3%, the Activity [24] was 91.7% and the Activity [25] was 0.7%. The viability at 20 µM [26] was 3.3%, the Activity [27] was 6.45% and the Activity [28] was 59.7%. For the same compound, the Activity [29] was 6.9%, the viability at 20 µM [30] was 26.9% and the Activity [31] was 15.29%. The Activity [32] was 1.35%, the Activity [33] was 32.78% and the Activity [34] was 50.57%. It also gave an Activity [35] of 24.3%, an Activity [36] of 54.3% and an Activity [37] of 13.5%. The Activity [38] was 7.9%, the Activity [39] was 31.75% and the Activity [40] was 19.15%. The Activity [41] was 18.6%, the Activity [42] was 30.5% and the Activity [43] was 79.33%. The Activity [44] was 20.67%, the Activity [45] was 85.13% and the Activity [46] was 14.87%. For the same compound, the Activity [47] was 98.83%, the Activity [48] was 1.17% and the Activity [49] was “Active”. The Activity [50] was “Active”, the Activity [51] was “Active” and the “growth inhibition (GI)” value [52] was “Active”. The “growth inhibition (GI)” value [2] was “Active” and the “growth inhibition (GI)” value [53] was “Active”.
